Measured values from ChEMBL document CHEMBL6109039, “Designed and synthesized novel tripeptides targeting diabetes and its related pathologies” (Eur J Med Chem, 2025).
Activity calls are given as the source filed them. Residues, ends and D or L forms follow the SMILES beside them.

Tests used:
Mus musculus [1] = assay: Antidiabetic activity in STZ induced male Balb/c mouse model assessed as amelioration of abnormal nephron cell morphology at 10 mg/kg, po treated for 21 days; assay type: functional, organism-based; conditions: time 21.0 day
Mus musculus [2] = assay: Antidiabetic activity in STZ induced male Balb/c mouse model assessed as amelioration of endocytic vacuole content at 10 mg/kg, po treated for 21 days; assay type: functional, organism-based; conditions: time 21.0 day
Mus musculus [3] = assay: Antidiabetic activity in STZ induced male Balb/c mouse model assessed as amelioration of tubular degeneration at 10 mg/kg, po treated for 21 days; assay type: functional, organism-based; conditions: time 21.0 day
Mus musculus [4] = assay: Antidiabetic activity in STZ induced male Balb/c mouse model assessed as amelioration of glomerular shrinkage at 10 mg/kg, po treated for 21 days; assay type: functional, organism-based; conditions: time 21.0 day
Mus musculus [5] = assay: Antidiabetic activity in STZ induced male Balb/c mouse model assessed as amelioration of tubular necrosis at 10 mg/kg, po treated for 21 days; assay type: functional, organism-based; conditions: time 21.0 day
Mus musculus [6] = assay: Antidiabetic activity in STZ induced male Balb/c mouse model assessed as amelioration of glomerular necrosis at 10 mg/kg, po treated for 21 days; assay type: functional, organism-based; conditions: time 21.0 day
[7] = molecular target: T1, Pancreatic alpha-amylase (Sus scrofa) (UniProt P00690); assay: Mixed type inhibition of porcine pancreatic Alpha-amylase using starch as substrate pre-incubated for 20 mins followed by substrate addition and measured after 15 mins by DNS reagent based absorbance assay; conditions: time 35.0 min
T1 sequence (whole entry): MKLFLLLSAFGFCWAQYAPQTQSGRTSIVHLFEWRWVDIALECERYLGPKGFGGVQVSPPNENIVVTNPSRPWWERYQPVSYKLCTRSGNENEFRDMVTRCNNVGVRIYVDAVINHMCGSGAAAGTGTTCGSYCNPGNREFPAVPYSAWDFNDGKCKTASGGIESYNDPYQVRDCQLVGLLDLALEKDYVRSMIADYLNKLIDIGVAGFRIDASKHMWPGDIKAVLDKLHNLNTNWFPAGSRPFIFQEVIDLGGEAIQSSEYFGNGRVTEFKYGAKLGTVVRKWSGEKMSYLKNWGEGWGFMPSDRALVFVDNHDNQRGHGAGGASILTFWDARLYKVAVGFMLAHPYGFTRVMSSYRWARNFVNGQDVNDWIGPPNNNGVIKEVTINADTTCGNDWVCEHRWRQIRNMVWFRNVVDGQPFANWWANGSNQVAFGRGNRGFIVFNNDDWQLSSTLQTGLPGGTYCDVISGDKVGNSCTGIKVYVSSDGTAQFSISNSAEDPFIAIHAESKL

Mus musculus [8] = assay: Antidiabetic activity in STZ induced male Balb/c mouse model assessed as appearance of tubule epithelium at 63.81 ug/kg, ip treated for 21 days; assay type: functional, organism-based; conditions: dose 63.81 µg/kg, time 21.0 day
Mus musculus [9] = assay: Antidiabetic activity in STZ induced male Balb/c mouse model assessed as reduction in bowman's space at 63.81 ug/kg, ip treated for 21 days; assay type: functional, organism-based; conditions: dose 63.81 µg/kg, time 21.0 day
Mus musculus [10] = assay: Antidiabetic activity in STZ induced male Balb/c mouse model assessed as ordered nephron cells with glomeruli at 63.81 ug/kg, ip treated for 21 days; assay type: functional, organism-based; conditions: dose 63.81 µg/kg, time 21.0 day
Mus musculus [11] = assay: Antidiabetic activity in STZ induced male Balb/c mouse model assessed as reduction in glomerulus diameter at 63.81 ug/kg, ip treated for 21 days; assay type: functional, organism-based; conditions: dose 63.81 µg/kg, time 21.0 day
[12] = tested on: N=C(N)NCCC[C@H](N)C(=O)N[C@@H](Cc1c[nH]c2ccccc12)C(=O)N[C@@H](Cc1c[nH]c2ccccc12)C(=O)O; assay: Competitive inhibition of Alpha-glucosidase (unknown origin) using p-nitrophenyl-alpha-D-glucopyranoside as substrate assessed as Km pre-incubated for 10 mins followed by substrate addition and measured after 5 mins by Lineweaver-Burk plot analysis (reference value: 1.785 mM); assay type: protein assay; conditions: Homo sapiens; time 15.0 min
[13] = tested on: N=C(N)NCCC[C@H](N)C(=O)N[C@@H](Cc1c[nH]c2ccccc12)C(=O)N[C@@H](Cc1c[nH]c2ccccc12)C(=O)O; assay: Competitive inhibition of Alpha-glucosidase (unknown origin) using p-nitrophenyl-alpha-D-glucopyranoside as substrate assessed as maximum velocity pre-incubated for 10 mins followed by substrate addition and measured after 5 mins by Lineweaver-Burk plot analysis (reference value: 0.802); assay type: protein assay; conditions: Homo sapiens; time 15.0 min

CCC1=C(C)CN(C(=O)NCCc2ccc(S(=O)(=O)NC(=O)N[C@H]3CC[C@H](C)CC3)cc2)C1=O
active: Activity (Mus musculus [1]) | Activity (Mus musculus [2]) | Activity (Mus musculus [3]) | Activity (Mus musculus [4]) | Activity (Mus musculus [5]) | Activity (Mus musculus [6])

N=C(N)NCCC[C@H](N)C(=O)N[C@@H](Cc1c[nH]c2ccccc12)C(=O)N[C@@H](Cc1c[nH]c2ccccc12)C(=O)O (H-Arg-Trp-Trp-OH)
active: inhibition [7] | Activity (Mus musculus [8]) | Activity (Mus musculus [9]) | Activity (Mus musculus [10]) | Activity (Mus musculus [11])

Alpha glucosidase (Homo sapiens) (from UniProt O43451+P10253+P14410+Q2M2H8)
1370 µM: Km [12]
0.7: Vmax [13]
